According to PubChem BioAssay AID248 (DTP/NCI, 2004):
Toxic doses and inconclusive results are not listed.

System: L1210 leukemia ip in BDF1 mice, survival T/C
Assay: NCI In Vivo Anticancer Drug Screen. Data for tumor model L1210 Leukemia (intraperitoneal) in B6D2F1 (BDF1) mice
Conditions: endpoint: mean survival time, higher = longer survival
Outline: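 Value reflects the ratio of survival in compound-treated mice to survival in vehicle-treated controls, with both groups carrying the same transplanted tumor.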

[1] = dose: 100.0 mg/kg/injection, schedule: Q01DX009 (ip), vehicle: saline with Tween-80
[2] = dose: 100.0 mg/kg/injection, schedule: Q04DX003 (ip), vehicle: saline with Tween-80
[3] = dose: 200.0 mg/kg/injection, schedule: Q04DX003 (ip), vehicle: saline with Tween-80
[4] = dose: 400.0 mg/kg/injection, schedule: Q04DX003 (ip), vehicle: saline with Tween-80

## O=CNc1cc2c3c(c1)CCCN3CCC2
dose: 12.5 mg/kg/injection, schedule: Q01DX001 (ip), vehicle: saline
  T/C: 102 % of control
dose: 25.0 mg/kg/injection, schedule: Q01DX001 (ip), vehicle: saline
  T/C: 108 % of control
dose: 25.0 mg/kg/injection, schedule: Q01DX009 (ip), vehicle: saline
  T/C: 105 % of control
dose: 50.0 mg/kg/injection, schedule: Q01DX001 (ip), vehicle: saline
  T/C: 107 % of control
dose: 50.0 mg/kg/injection, schedule: Q01DX009 (ip), vehicle: saline
  T/C: 106 % of control
dose: 100.0 mg/kg/injection, schedule: Q01DX001 (ip), vehicle: saline
  T/C: 100 % of control

## COc1cc([N+](=O)[O-])ccc1NC(=O)Oc1ccc(-c2ccccc2)cc1
dose: 100.0 mg/kg/injection, schedule: Q01DX009 (ip), vehicle: Klucel (hydroxypropylcellulose) (HPC)
  T/C: 95 % of control
dose: 200.0 mg/kg/injection, schedule: Q01DX009 (ip), vehicle: Klucel (hydroxypropylcellulose) (HPC)
  T/C: 95 % of control
dose: 400.0 mg/kg/injection, schedule: Q01DX009 (ip), vehicle: Klucel (hydroxypropylcellulose) (HPC)
  T/C: 98 % of control

## CCCCOc1ccc(C(=O)NN)cc1
dose: 25.0 mg/kg/injection, schedule: Q01DX009 (ip), vehicle: saline with Tween-80
  T/C: 93 % of control
dose: 50.0 mg/kg/injection, schedule: Q01DX009 (ip), vehicle: saline with Tween-80
  T/C: 102 % of control
[1]
  T/C: 88 % of control

## N#C/C(N)=C(\C#N)N=C1CCCCC1=O
dose: 100.0 mg/kg/injection, schedule: Q04DX002 (ip), vehicle: Klucel (hydroxypropylcellulose) (HPC)
  T/C: 94 % of control
dose: 200.0 mg/kg/injection, schedule: Q04DX002 (ip), vehicle: Klucel (hydroxypropylcellulose) (HPC)
  T/C: 91 % of control
dose: 400.0 mg/kg/injection, schedule: Q04DX002 (ip), vehicle: Klucel (hydroxypropylcellulose) (HPC)
  T/C: 94 % of control

## [O]=[Hf]=[O]
dose: 100.0 mg/kg/injection, schedule: Q04DX003 (ip), vehicle: saline
  T/C: 96 % of control
dose: 200.0 mg/kg/injection, schedule: Q04DX003 (ip), vehicle: saline
  T/C: 92 % of control
dose: 400.0 mg/kg/injection, schedule: Q04DX003 (ip), vehicle: saline
  T/C: 97 % of control

## O=C(CC1(c2ccccc2)C(=O)c2ccccc2C1=O)c1ccccc1
dose: 100.0 mg/kg/injection, schedule: Q01DX001 (ip), vehicle: carboxymethylcellulose (CMC)
  T/C: 94 % of control
dose: 200.0 mg/kg/injection, schedule: Q01DX001 (ip), vehicle: carboxymethylcellulose (CMC)
  T/C: 91 % of control
dose: 400.0 mg/kg/injection, schedule: Q01DX001 (ip), vehicle: carboxymethylcellulose (CMC)
  T/C: 94 % of control

## OCC1OC(n2cnc3c(SCc4ccccc4)nc(Cl)cc32)C(O)C1O (stereo not given)
dose: 100.0 mg/kg/injection, schedule: Q01DX005 (ip), vehicle: saline
  T/C: 95 % of control
dose: 200.0 mg/kg/injection, schedule: Q01DX005 (ip), vehicle: saline
  T/C: 93 % of control

## COc1ccc(/C=C\c2nc3ccccc3c(=O)[nH]2)cc1
[2]
  T/C: 95 % of control
[3]
  T/C: 88 % of control
[4]
  T/C: 95 % of control

## Cc1nc2cc3ccccc3c3ccc4cccc1c4c23
[1]
  T/C: 93 % of control
dose: 200.0 mg/kg/injection, schedule: Q01DX009 (ip), vehicle: saline with Tween-80
  T/C: 93 % of control
dose: 400.0 mg/kg/injection, schedule: Q01DX009 (ip), vehicle: saline with Tween-80
  T/C: 87 % of control

## C(/C=C/c1ccccc1)=Nc1ccc(CCc2ccc(N=C/C=C/c3ccccc3)cc2)cc1
[2]
  T/C: 91 % of control
[3]
  T/C: 92 % of control
[4]
  T/C: 92 % of control

## Cc1cc(=O)[nH]c(N)n1
dose: 100.0 mg/kg/injection, schedule: Q04DX003 (ip), vehicle: Klucel (hydroxypropylcellulose) (HPC)
  T/C: 114 % of control
[2]
  T/C: 98 % of control
dose: 200.0 mg/kg/injection, schedule: Q04DX003 (ip), vehicle: Klucel (hydroxypropylcellulose) (HPC)
  T/C: 101 % of control
[3]
  T/C: 98 % of control
dose: 400.0 mg/kg/injection, schedule: Q04DX003 (ip), vehicle: Klucel (hydroxypropylcellulose) (HPC)
  T/C: 93 % of control
[4]
  T/C: 96 % of control

## OCC1OC(n2cnc3c(NO)nc(NO)nc32)C(O)C1O (stereo not given)
dose: 30.0 mg/kg/injection, schedule: Q01DX009 (ip), vehicle: saline
  T/C: 151 % of control
dose: 150.0 mg/kg/injection, schedule: Q01DX001 (ip), vehicle: saline
  T/C: 115 % of control
